The assay has as its target SARS-CoV-2 Papain-Like Protease (PLpro) (Severe acute respiratory syndrome coronavirus 2 (2019-nCoV) (SARS-CoV-2), UniProt P0DTD1). In words: biochemical. Particulars: read-out: PLpro IC50.
Setting [1] is: SARS-CoV-2 PLpro enzymatic fluorescence assay.
The mark [2] stands for this setting: PLpro enzymatic fluorescence assay, class symbols.

Molecules are shown by their SMILES. Like-named read-outs stand apart in the source and are kept apart here.

As for `COc1cc(C2(NC(=O)c3cc(OC[C@@H]4CCN4C)ccc3C)CC2)c2cccnc2c1` [Compound 527, (S)-N-(1-(7-Methoxyquinolin-5-yl)cyclopropyl)-2-methyl-5-((1-methylazetidin-2-yl)methoxy)benzamide], the IC50 under setting [1] is under 100 nM.
For `COc1cc(C2(NC(=O)c3cc(OC[C@@H]4CCCN4C)ccc3C)CC2)c2cccnc2c1` [Compound 528, (S)-N-(1-(7-Methoxyquinolin-5-yl)cyclopropyl)-2-methyl-5-((1-methylpyrrolidin-2-yl)methoxy)benzamide], the IC50 under setting [1] is under 100 nM.
Take `Cc1ccc(OCC2CCN2C)cc1C(=O)NC1(c2cccc3nc(F)ccc23)CC1` (centres unmarked) [Compound 529, N-(1-(2-Fluoroquinolin-5-yl)cyclopropyl)-2-methyl-5-((1-methylazetidin-2-yl)methoxy)benzamide]: the IC50 under setting [1] is under 100 nM.
On the same count and under the same terms, in the case of `COc1cc(C2(NC(=O)c3cc(OC[C@H](C)N)ccc3C)CC2)c2cccnc2c1` [Compound 530, (S)-5-(2-Aminopropoxy)-N-(1-(7-methoxyquinolin-5-yl)cyclopropyl)-2-methylbenzamide] it was under 100 nM.
With `COc1cc(C2(NC(=O)c3cc(OC[C@H]4C[C@H](F)CN4C)ccc3C)CC2)c2ccccc2c1` [Compound 531, 5-(((2R,4S)-4-Fluoro-1-methylpyrrolidin-2-yl)methoxy)-N-(1-(3-methoxynaphthalen-1-yl)cyclopropyl)-2-methylbenzamide], under setting [2], the IC50 is under 100 nM.
Same read-out and setting: as for `COc1cc(C2(NC(=O)c3cc(OC[C@@H]4C[C@@H](F)CN4C)ccc3C)CC2)c2cccnc2c1` [Compound 532, 5-(((2S,4R)-4-Fluoro-1-methylpyrrolidin-2-yl)methoxy)-N-(1-(7-methoxyquinolin-5-yl)cyclopropyl)-2-methylbenzamide], the figure is under 100 nM.
In the case of `Cc1ccc(OC2CNC(C)(C)C2)cc1C(=O)NC1(c2cccc3ccccc23)CC1` (centres unmarked) [Compound 533, 5-((5,5-Dimethylpyrrolidin-3-yl)oxy)-2-methyl-N-(1-(naphthalen-1-yl)cyclopropyl)benzamide], under setting [1], the IC50 was under 100 nM.
`Cc1ccc(OCC2CC(C)(C)N2)cc1C(=O)NC1(c2cccc3ccccc23)CC1` (centres unmarked) [Compound 534, 5-((4,4-Dimethylazetidin-2-yl)methoxy)-2-methyl-N-(1-(naphthalen-1-yl)cyclopropyl)benzamide]: under setting [1], the IC50 is under 100 nM.
For the compound `COc1cc(C2(NC(=O)c3cc(OC[C@@H](C)N)ccc3C)CC2)c2cccnc2c1` [Compound 535, (R)-5-(2-Aminopropoxy)-N-(1-(7-methoxyquinolin-5-yl)cyclopropyl)-2-methylbenzamide], the IC50 under setting [2] was under 100 nM.
As for `COc1cc(C2(NC(=O)c3cc(OC[C@H](C)N)ccc3C)CC2)c2ccncc2c1` [Compound 536, (S)-5-(2-Aminopropoxy)-N-(1-(7-methoxyisoquinolin-5-yl)cyclopropyl)-2-methylbenzamide], the IC50 under setting [2] is under 100 nM.
The same measure, in the same setting: in the case of `COc1cc(C2(NC(=O)c3cc(OC[C@@H](C)N)ccc3C)CC2)c2ccncc2c1` [Compound 537, (R)-5-(2-Aminopropoxy)-N-(1-(7-methoxyisoquinolin-5-yl)cyclopropyl)-2-methylbenzamide] it was under 100 nM.
Turning to `COc1cc(C2(NC(=O)c3cc(CC[C@@H]4CCC4C)ccc3C)CC2)c2ccncc2c1` (some centres unmarked) [Compound 538], under setting [1], the IC50 is under 100 nM.
Same read-out and setting: as for `Cc1ccc(OC[C@H](C)N)cc1C(=O)NC1(c2cc(-c3cccs3)cc3ccccc23)CC1` [Compound 539, (S)-5-(2-Aminopropoxy)-2-methyl-N-(1-(3-(thiophen-2-yl)naphthalen-1-yl)cyclopropyl)benzamide], the figure is under 100 nM.
Regarding `Cc1ccc(OC[C@@H](C)N)cc1C(=O)NC1(c2cc(Br)cc3ccccc23)CC1` [Compound 540, (R)-5-(2-Aminopropoxy)-N-(1-(3-bromonaphthalen-1-yl)cyclopropyl)-2-methylbenzamide], the IC50 under setting [2] is under 100 nM.
In the case of `Cc1ccc(OC[C@H](C)N)cc1C(=O)NC1(c2cc(Br)cc3ccccc23)CC1` [Compound 541, (S)-5-(2-Aminopropoxy)-N-(1-(3-bromonaphthalen-1-yl)cyclopropyl)-2-methylbenzamide], under setting [1], the IC50 was under 100 nM.
For the compound `Cc1ccc(OC[C@@H]2CCN2C)cc1C(=O)NC1(c2cc(O)nc3cc(F)ccc23)CC1` [Compound 542, (S)-N-(1-(7-Fluoro-2-hydroxyquinolin-4-yl)cyclopropyl)-2-methyl-5-((1-methylazetidin-2-yl)methoxy)benzamide], the IC50 under setting [1] is under 100 nM.
On to `Cc1ccc(OC[C@@H](C)N)cc1C(=O)NC1(c2cc(-c3cccs3)cc3ccccc23)CC1` [Compound 543, (R)-5-(2-Aminopropoxy)-2-methyl-N-(1-(3-(thiophen-2-yl)naphthalen-1-yl)cyclopropyl)benzamide], for which the IC50 under setting [2] was under 100 nM.
For `COc1ccc2c(C3(NC(=O)c4cc(OC[C@@H]5CCN5C)ccc4C)CC3)cccc2n1` [Compound 544, (S)-N-(1-(2-Methoxyquinolin-5-yl)cyclopropyl)-2-methyl-5-((1-methylazetidin-2-yl)methoxy)benzamide], the IC50 under setting [1] was under 100 nM.
In the case of `Cc1ccc(OC[C@@H]2CCN2C)cc1C(=O)NC1(c2cccc3nc(O)ccc23)CC1` [Compound 545, (S)-N-(1-(2-Hydroxyquinolin-5-yl)cyclopropyl)-2-methyl-5-((1-methylazetidin-2-yl)methoxy)benzamide], the IC50 under setting [1] is under 100 nM.
Same read-out and setting: in the case of `Cc1ccc2c(C3(NC(=O)c4cc(OC[C@@H]5CCN5C)ccc4C)CC3)cccc2n1` [Compound 547, (S)-2-Methyl-5-((1-methylazetidin-2-yl)methoxy)-N-(1-(2-methylquinolin-5-yl)cyclopropyl)benzamide] it was under 100 nM.
Consider `Cc1ccc(OC[C@@H]2CCN2C)cc1C(=O)NC1(c2cccc3nc(N(C)C)ccc23)CC1` [Compound 548, (S)-N-(1-(2-(Dimethylamino)quinolin-5-yl)cyclopropyl)-2-methyl-5-((1-methylazetidin-2-yl)methoxy)benzamide], for which the IC50 under setting [1] is under 100 nM.
Take `CC(c1cccc2ncccc12)N1CCC(C(=O)NCc2cccc(F)c2)CC1` (centres unmarked) [Compound 549, N-(3-Fluorobenzyl)-1-(1-(quinolin-5-yl)ethyl)piperidine-4-carboxamide]: the IC50 under setting [1] was over 5000 nM.
The same measure, in the same setting: as for `COc1cc(C2(NC(=O)c3cc(OC[C@@H]4CCCCN4)ccc3C)CC2)c2cccnc2c1` [Compound 550, (S)-N-(1-(7-Methoxyquinolin-5-yl)cyclopropyl)-2-methyl-5-(piperidin-2-ylmethoxy)benzamide], the figure is under 100 nM.
As for `Cc1ccc(OC[C@@H]2CCN2C)cc1C(=O)NC1(c2cc(-c3cccs3)cc3ncccc23)CC1` [Compound 551, (S)-2-Methyl-5-((1-methylazetidin-2-yl)methoxy)-N-(1-(7-(thiophen-2-yl)quinolin-5-yl)cyclopropyl)benzamide], the IC50 under setting [1] was under 100 nM.
As for `CC(C)c1ccccc1C(C)N1CCC(C(=O)NCc2cccc(F)c2)CC1` (centres unmarked) [Compound 552, N-(3-Fluorobenzyl)-1-(1-(2-isopropylphenyl)ethyl)piperidine-4-carboxamide], the IC50 under setting [2] was over 5000 nM.
`COc1cc(C2(NC(=O)c3cc(OC[C@@H]4CCCCN4C)ccc3C)CC2)c2cccnc2c1` [Compound 553, (S)-N-(1-(7-Methoxyquinolin-5-yl)cyclopropyl)-2-methyl-5-((1-methylpiperidin-2-yl)methoxy)benzamide]: the IC50 under setting [2] is under 100 nM.
As for `COc1cc(C2(NC(=O)c3cc(OC[C@H]4CCN4)ccc3C)CC2)c2cccnc2c1` [Compound 554, (R)-5-(Azetidin-2-ylmethoxy)-N-(1-(7-methoxyquinolin-5-yl)cyclopropyl)-2-methylbenzamide], the IC50 under setting [2] is under 100 nM.
`COc1cc(C2(NC(=O)c3cc(OC[C@@H]4CCN4C)ccc3C)CC2)c2ccccc2n1` [Compound 555, (S)-N-(1-(2-Methoxyquinolin-4-yl)cyclopropyl)-2-methyl-5-((1-methylazetidin-2-yl)methoxy)benzamide]: the IC50 under setting [1] is under 100 nM.
Regarding `COc1cc(C2(NC(=O)c3cc(OC[C@H]4C[C@H](F)CN4)ccc3C)CC2)c2cccnc2c1` [Compound 556, 5-(((2R,4S)-4-Fluoropyrrolidin-2-yl)methoxy)-N-(1-(7-methoxyquinolin-5-yl)cyclopropyl)-2-methylbenzamide], under setting [2], the IC50 was under 100 nM.
`COc1cc(C2(NC(=O)c3cc(OC[C@H]4C[C@H](F)CN4C)ccc3C)CC2)c2cccnc2c1` [Compound 557, 5-(((2R,4S)-4-Fluoro-1-methylpyrrolidin-2-yl)methoxy)-N-(1-(7-methoxyquinolin-5-yl)cyclopropyl)-2-methylbenzamide]: the IC50 under setting [2] was under 100 nM.
As to `COc1cc(C2(NC(=O)c3cc(OC[C@H]4CCN4C)ccc3C)CC2)c2cccnc2c1` [Compound 558, (R)-N-(1-(7-Methoxyquinolin-5-yl)cyclopropyl)-2-methyl-5-((1-methylazetidin-2-yl)methoxy)benzamide], the IC50 under setting [2] is under 100 nM.
In the case of `COc1cc(C2(NC(=O)c3cc(OCC45CCCN4CCC5)ccc3C)CC2)c2cccnc2c1` [Compound 559, 5-((Hexahydro-1H-pyrrolizin-7a-yl)methoxy)-N-(1-(7-methoxyquinolin-5-yl)cyclopropyl)-2-methylbenzamide], the IC50 under setting [2] was under 100 nM.
With `CN[C@@H](C)COc1ccc(C)c(C(=O)NC2(c3cc(OC)cc4ncccc34)CC2)c1` [Compound 560, (S)-N-(1-(7-Methoxyquinolin-5-yl)cyclopropyl)-2-methyl-5-(2-(methylamino)propoxy)benzamide], under setting [1], the IC50 was under 100 nM.
As to `COc1ccnc(COc2ccc(C)c(C(=O)NC3(c4cc(OC)cc5ncccc45)CC3)c2)c1` [Compound 561, 5-((4-Methoxypyridin-2-yl)methoxy)-N-(1-(7-methoxyquinolin-5-yl)cyclopropyl)-2-methylbenzamide], the IC50 under setting [1] was 100 to 1000 nM.
As for `COc1cc(C2(NC(=O)c3cc(OCc4ccccn4)ccc3C)CC2)c2cccnc2c1` [Compound 562, N-(1-(7-Methoxyquinolin-5-yl)cyclopropyl)-2-methyl-5-(pyridin-2-ylmethoxy)benzamide], the IC50 under setting [2] lay within 100 to 1000 nM.
